Key:
BC LSC = experiment: Serial transplantation of treated bone marrow into secondary recipients, survival; type: in vivo, RAG2−/−γc−/− mice
Excerpt: (§1) Immunocompromised RAG2^−/−yc^−/− mice were bred and maintained in the University of California San Diego Moores Cancer Center vivarium. Neonatal mice were transplanted intrahepatically with 50,000-200,000 CD34^+ cells according to our previously published methods (see Jaiswal, S. et al. cited above and Jamieson, C. H., et al. cited above). Transplanted mice were screened for tumor formation or human engraftment in peripheral blood by FACS at 6-8 weeks post-transplant. Upon detection of tumors, peripheral blood engraftment, or at 8-12 weeks post-transplant engrafted mice were treated for 2 weeks with dasatinib (daily, 50 mg/kg/day in 50% PEG, 50% PBS by oral gavage), sabutoclax (3 days per week, 5 mg/kg/day in 10% EtOH, 10% Cremaphor EL (Sigma Aldrich) 80% PBS by IP injection), or drug vehicles. Twenty-four hours post-treatment (10-14 weeks post-transplant), mice were euthanized and single cell suspensions of hematopoietic tissues were analyzed for human engraftment by FACS as described previously (see Jaiswal, S. et al. and Jamieson, C. H., et al. cited above). For in vivo combination studies, dasatinib was used at 25 or 50 mg/kg while sabutclax was used at 1.25 or 2.5 mg/kg with the same dosing regimen described above. For serial transplantation, a mix of whole mouse bone marrows was made from mice in the same treatment group. Total bone marrow cells were then counted by using Guava ViaCount Reagent and analysis on a Guava PCA system (Millipore), and transplanted in equal numbers into secondary neonatal recipients by intrahepatic injection. 250,000 whole bone marrow cells per mouse were injected.

[1] = system: BC LSC (human BC CML CD34+CD38+ progenitors); experiment: BC LSC engraftment in vivo (FACS) in mice transplanted with human BC CML CD34+ cells; design: species or system RAG2−/−γc−/− mice; settings: for Mean (SEM) engraftment of CD34+CD38+ cells, Blood / Mean (SEM) engraftment of CD34+CD38+ cells, Marrow / Mean (SEM) engraftment of CD34+CD38+ cells, Spleen: 2 weeks; for effect on marrow LSC engraftment compared to vehicle treated controls: lower doses: sabutoclax 1.25 mg/kg, dasatinib 25 mg/kg
Excerpt: as §1

BCL2 and MCL1 = experiment: Bone marrow BCL2, MCL1 and Ki67 IHC analysis of treated engrafted marrow; type: in vivo, RAG2−/−γc−/− mice; settings: following sabutoclax treatment; data not shown
Method: For IHC, femurs were harvested from transplanted, treated animals, fixed and decalcified in Cal-Ex II (Fisher Scientific, Fair Lawn, N.J.) for 48 hrs, followed by standard tissue processing, paraffin-embedding and sectioning. Paraffin tissue sections were deparaffinized, rehydrated, and boiled in antigen retrieval solution (BD, California) (pH 6.0) for 10 min to retrieve antigen. Tissues were blocked with 5% bovine serum albumin (BSA) and 0.25% Triton X-100 in PBS for 30 min and incubated with primary antibody in PBS with 1% BSA at 4° C. for 16 h. Primary antibodies used were human CD45 (Abcam) and ki67 (BD). IHC staining was then carried out with LSAB System-HRP Kit (Dako Cytomation, Hamburg, Germany) according to manufacturer's protocol using methyl green (Sigma Aldrich) as counterstaining. […] All sections were mounted before examination using a Nikon Eclipse E600 microscope. […]
Bone specimens were fixed and mildly decalcified in Bouin's solution (Sigma-Aldrich, St. Louis, Mo.) for 8 h at room temperature, then postfixed in zinc-containing buffered formalin (Z-Fix; Anatech Ltd., Battle Creek, Mich.) for 3 days at 4° C., and embedded in paraffin. […] The Spectrum Analysis algorithm package and ImageScope analysis software (version 9; Aperio Technologies, Inc.) were applied to quantify IHC stainings.

marrow-engrafted BC LSC = experiment: FACS cell cycle analysis (Ki-67/7-AAD) of bone marrow engrafted BC CML cells; type: in vivo, RAG2−/−γc−/− mice; settings: FIG. 7
Excerpt: Single cell suspensions of bone marrow cells from mice treated with sabutoclax or vehicle were immunostained with Alexa405-conjugated anti-human CD45 (Invitrogen), Alexa647-anti-human CD38 (Ab Serotec) and biotin-anti-human CD34 (Invitrogen) plus Alexa488-strepavidin (Invitrogen) in 2% fetal bovine serum/PBS-followed by live cell staining using the LIVE/DEAD® Fixable Near-IR Dead Cell Stain Kit (Invitrogen). Surface stained cells were then fixed in 70% ethanol overnight. […] Stained samples were analyzed using a FACSAria and FlowJo.

BC LSC-engrafted marrow = experiment: TUNEL apoptosis analysis of engrafted bone marrow; type: in vivo, RAG2−/−γc−/− mice; settings: following sabutoclax treatment
Excerpt: For apoptosis analysis, bone marrows are stained using the ApopTag fluorescein in situ TUNEL apoptosis detection kit (Chemicon, #S7110) following the manufacturer's protocol. Sections are mounted as above. Images are acquired using an Applied Imaging Ariol SL-50 automated scanning microscope and image analysis system.

[2] = High dose treatment (sabutoclax 2.5 mg/kg, dasatinib 50 mg/kg)
[3] = Low dose treatment (sabutoclax 1.25 mg/kg, dasatinib 25 mg/kg)

| SMILES | 2° TP - Median survival (BC LSC; High dose treatment) | 2° TP - Median survival (BC LSC; Low dose treatment) | Mean (SEM) engraftment of CD34+CD38+ cells, Blood [1, 2] | Mean (SEM) engraftment of CD34+CD38+ cells, Marrow [1, 2] | Mean (SEM) engraftment of CD34+CD38+ cells, Spleen [1, 2] | Mean (SEM) engraftment of CD34+CD38+ cells, Blood [1, 3] | Mean (SEM) engraftment of CD34+CD38+ cells, Marrow [1, 3] | Mean (SEM) engraftment of CD34+CD38+ cells, Spleen [1, 3] | effect on marrow LSC engraftment compared to vehicle treated controls [1] | BCL2 and MCL1 immunopositive cells in BC LSC-engrafted marrow (BCL2 and MCL1) | G2/S cells in engrafted marrow (marrow-engrafted BC LSC) | TUNEL+ apoptotic cells in engrafted marrow (BC LSC-engrafted marrow) | LSC engraftment in all hematopoietic tissues including bone marrow ([1]; 5 mg/kg, FIG. 5b) |
| --- | --- | --- | --- | --- | --- | --- | --- | --- | --- | --- | --- | --- | --- |
| Cc1nc(Nc2ncc(C(=O)Nc3c(C)cccc3Cl)s2)cc(N2CCN(CCO)CC2)n1 [Dasatinib, dasatinib] | 43 days | 79 days | 3.1 (2.4) | 21.23 (2.4) | 0.2 (0.07) | 2.1 (0.9) | 28.8 (10.7) | 2.0 (0.8) | no significant effect | – | – | – | – |
| Cc1cc2c(C(=O)NC[C@H](C)c3ccccc3)c(O)c(O)cc2c(O)c1-c1c(C)cc2c(C(=O)NC[C@H](C)c3ccccc3)c(O)c(O)cc2c1O [Sabutoclax] | 45 days | 74 days | 24.5 (17.6) | 30.01 (23.2) | 5.1 (1.5) | 11.0 (3.8) | 34.2 (12.5) | 12 (2.7) | no significant effect | reduced amount | slight increase | increased | significantly reduced |

— patent US10001485B2, “Methods for sensitizing a quiescent cancer stem cell to a BCR-ABL inhibitor” (The Regents of the University of California, priority 2011, dated 2018)
